Earlier results as cited in patent publication US20260053727A1, “PERSONAL CARE COMPOSITIONS WITH ENZYME-MODIFIED OILS (EMOS)” (GLYCOSBIO INC., priority 2023, published 2026).

Details: commonly known

In the case of O=C([O-])c1ccccc1.[Na+] [sodium benzoate], the antimicrobial activity is listed as “weakly antimicrobial”.
